{"source": "patent US20220183972A1", "about": "“NANOEMULSION HYDROPHOBIC […]” (VERTOSA INC., priority 2018, published 2022)", "data": [{"assay": "not given", "conditions": "upon eating cannabis; cited from earlier work", "values": [{"compound": "CCCCCc1cc(O)c2c(c1)OC(C)(C)[C@@H]1CCC(C)=C[C@@H]21", "note": "[THC, Tetrahydrocannabinol]", "THC absorbed": "8-15%"}]}, {"assay": "not given", "conditions": "upon smoking cannabis; cited from earlier work", "values": [{"compound": "CCCCCc1cc(O)c2c(c1)OC(C)(C)[C@@H]1CCC(C)=C[C@@H]21", "note": "[THC, Tetrahydrocannabinol]", "THC absorbed by lung": "2-45%"}]}, {"assay": "not given", "conditions": "Span surfactants, Example 10; cited from earlier work", "values": [{"compound": "Span 120", "HLB": 4.7}, {"compound": "Span 60", "HLB": 4.7}, {"compound": "Span 40", "HLB": 6.7}, {"compound": "Span 80", "HLB": 4.3}]}, {"assay": "not given", "conditions": "Table 1; cited from earlier work", "values": [{"compound": "Vitamin E TPGS 200", "HLB": 6.3}, {"compound": "Vitamin E TPGS 300", "HLB": 8.2}, {"compound": "Polyglyceryl-6 oleate", "HLB": 9}, {"compound": "Vitamin E TPGS 2000", "HLB": 16.5}, {"compound": "Tween 81", "HLB": 10}, {"compound": "Vitamin E TPGS 4000", "HLB": 18.1}, {"compound": "Polyglyceryl-6 Stearate", "HLB": 9}]}, {"assay": "Emulsion droplet size by DLS, Polyglyceryl-4 main surfactants", "type": "physicochemical", "conditions": "1 g cannabinoid oil, 0.7 g olive oil, 2.5 g Polyglyceryl-4 surfactant, 1.5 g sunflower lecithin, 40 g water, 80% amplitude", "units": {"final emulsion droplet average size": "nm"}, "values": [{"compound": "Polyglyceryl-4 Caprate", "final emulsion droplet average size": 365}, {"compound": "Polyglyceryl-4 Isostearate", "final emulsion droplet average size": 371}, {"compound": "Polyglyceryl-4 Oleate", "final emulsion droplet average size": 506}]}]}
